{
  "source": "paper PMC9122944",
  "about": "“Structural insights into the activation of somatostatin receptor 2 by cyclic SST analogues” (Cell Discovery, 2022)",
  "key": {"[1]": {"biological_target": "T1, SSTR2 N276A (Homo sapiens, UniProt P30874, N276A)", "T1 construct": "Flag; expressed in transfected cells; host or cells: 293 T cells (pcDNA3.1, co-transfected with Gqi9)", "T1 sequence (P30874 whole entry N276A)": "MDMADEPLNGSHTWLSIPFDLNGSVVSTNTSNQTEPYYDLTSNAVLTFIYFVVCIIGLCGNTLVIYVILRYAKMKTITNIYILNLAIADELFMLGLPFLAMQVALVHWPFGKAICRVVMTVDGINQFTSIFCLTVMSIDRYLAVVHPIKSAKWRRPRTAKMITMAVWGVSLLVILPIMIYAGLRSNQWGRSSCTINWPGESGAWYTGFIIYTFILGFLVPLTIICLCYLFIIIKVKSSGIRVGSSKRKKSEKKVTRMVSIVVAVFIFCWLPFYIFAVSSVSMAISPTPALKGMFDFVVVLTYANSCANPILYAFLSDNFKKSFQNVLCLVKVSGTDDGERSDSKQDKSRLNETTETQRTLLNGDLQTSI", "experiment": "Intracellular Ca2+ mobilization signaling assay, SSTR2 N276A mutant", "format": "cell-based", "details": "read-out: Ca2+ Emax", "procedure": "(§1) SSTR2 (wild-type or mutant) and Gqi9 cloned in pcDNA3.1 vector were co-transfected into 293 T cells at a ratio of 2:1 with Lipo3000. After 24 h, the cells were plated in poly-D-lysine-coated 96-well plates. After cells were washed with calcium buffer (HBSS buffer supplemented with 0.1% BSA, 2.5 mM probenecid, pH 7.4), Fluo4 AM was added and incubated for 50 min in a 37 °C incubator. After washing with calcium buffer, 50 μL calcium buffer was added to each well. Fluorescence intensities were recorded simultaneously from all the wells by a FLIPR. Plates were illuminated at 488 nm and fluorescence emission was recorded at 540 nm. The fluorescence intensity was measured at 1-s intervals for 410 s. This procedure was followed by the addition of 50 μL agonist. Data were normalized to the baseline response of the ligand. Data were analyzed using nonlinear regression in GraphPad Prism software 9.0."}, "[2]": {"biological_target": "T2, SSTR2 F272A (Homo sapiens, UniProt P30874, F272A)", "T2 construct": "Flag; expressed in transfected cells; host or cells: 293 T cells (pcDNA3.1, co-transfected with Gqi9)", "T2 sequence (P30874 whole entry F272A)": "as the sequence (P30874 whole entry N276A) above, with F272A, A276N counted along it", "experiment": "Intracellular Ca2+ mobilization signaling assay, SSTR2 F272A mutant", "format": "cell-based", "details": "percentage of wild-type SSTR2 response", "procedure": "as §1"}, "[3]": {"biological_target": "T3, SSTR2-Q102S (Homo sapiens, UniProt P30874, Q102S)", "T3 construct": "Flag; expressed in transfected cells; host or cells: 293 T cells (pcDNA3.1, co-transfected with Gqi9)", "T3 sequence (P30874 whole entry Q102S)": "as the sequence (P30874 whole entry N276A) above, with Q102S, A276N counted along it", "experiment": "Intracellular Ca2+ mobilization signaling assay, SSTR2 Q102S mutant", "format": "cell-based", "details": "for Emax: read-out: Ca2+ Emax", "procedure": "as §1"}, "[4]": {"biological_target": "T4, SSTR2 F208A (Homo sapiens, UniProt P30874, F208A)", "T4 construct": "Flag; expressed in transfected cells; host or cells: 293 T cells (pcDNA3.1, co-transfected with Gqi9)", "T4 sequence (P30874 whole entry F208A)": "as the sequence (P30874 whole entry N276A) above, with F208A, A276N counted along it", "experiment": "Intracellular Ca2+ mobilization signaling assay, SSTR2 F208A mutant", "format": "cell-based", "details": "read-out: Ca2+ Emax", "procedure": "as §1"}, "[5]": {"biological_target": "T5, SSTR2 D122A (Homo sapiens, UniProt P30874, D122A)", "T5 construct": "Flag; expressed in transfected cells; host or cells: 293 T cells (pcDNA3.1, co-transfected with Gqi9)", "T5 sequence (P30874 whole entry D122A)": "as the sequence (P30874 whole entry N276A) above, with D122A, A276N counted along it", "experiment": "Intracellular Ca2+ mobilization signaling assay, SSTR2 D122A mutant", "format": "cell-based", "details": "read-out: Ca2+ Emax", "procedure": "as §1"}, "[6]": {"biological_target": "T6, SSTR2 F294S (Homo sapiens, UniProt P30874, F294S)", "T6 construct": "Flag; expressed in transfected cells; host or cells: 293 T cells (pcDNA3.1, co-transfected with Gqi9)", "T6 sequence (P30874 whole entry F294S)": "as the sequence (P30874 whole entry N276A) above, with A276N, F294S counted along it", "experiment": "Intracellular Ca2+ mobilization signaling assay, SSTR2 F294S mutant", "format": "cell-based", "details": "read-out: Ca2+ Emax", "procedure": "as §1"}, "[7]": {"biological_target": "T7, SSTR2 Y302A (Homo sapiens, UniProt P30874, Y302A)", "T7 construct": "Flag; expressed in transfected cells; host or cells: 293 T cells (pcDNA3.1, co-transfected with Gqi9)", "T7 sequence (P30874 whole entry Y302A)": "as the sequence (P30874 whole entry N276A) above, with A276N, Y302A counted along it", "experiment": "Intracellular Ca2+ mobilization signaling assay, SSTR2 Y302A mutant", "format": "cell-based", "details": "read-out: Ca2+ Emax", "procedure": "as §1"}, "[8]": {"biological_target": "T8, SSTR2 Q102A (Homo sapiens, UniProt P30874, Q102A)", "T8 construct": "Flag; expressed in transfected cells; host or cells: 293 T cells (pcDNA3.1, co-transfected with Gqi9)", "T8 sequence (P30874 whole entry Q102A)": "as the sequence (P30874 whole entry N276A) above, with Q102A, A276N counted along it", "experiment": "Intracellular Ca2+ mobilization signaling assay, SSTR2 Q102A mutant", "format": "cell-based", "details": "for Emax: read-out: Ca2+ Emax", "procedure": "as §1"}, "[9]": {"details": "cited from earlier work"}, "[10]": {"biological_target": "T9, SSTR2-Q126A (Homo sapiens, UniProt P30874, Q126A)", "T9 construct": "Flag; expressed in transfected cells; host or cells: 293 T cells (pcDNA3.1, co-transfected with Gqi9)", "T9 sequence (P30874 whole entry Q126A)": "as the sequence (P30874 whole entry N276A) above, with Q126A, A276N counted along it", "experiment": "Intracellular Ca2+ mobilization signaling assay, SSTR2 Q126A mutant", "format": "cell-based", "details": "read-out: Ca2+ Emax", "procedure": "as §1"}, "[11]": {"biological_target": "T10, SSTR2 (wild-type) (Homo sapiens, UniProt P30874)", "T10 construct": "Flag; expressed in transfected cells; host or cells: 293 T cells (pcDNA3.1, co-transfected with Gqi9)", "experiment": "Intracellular Ca2+ mobilization signaling assay, wild-type SSTR2", "format": "cell-based", "procedure": "as §1"}, "[12]": {"biological_target": "T11, SSTR2(1-359)-Largebit (Homo sapiens, UniProt P30874)", "T11 construct": "SSTR2(1-359)-; Flag; expressed in transfected cells; host or cells: 293 T cells (pcDNA3.1, co-transfected with Gqi9)", "T11 sequence (P30874 1-359)": "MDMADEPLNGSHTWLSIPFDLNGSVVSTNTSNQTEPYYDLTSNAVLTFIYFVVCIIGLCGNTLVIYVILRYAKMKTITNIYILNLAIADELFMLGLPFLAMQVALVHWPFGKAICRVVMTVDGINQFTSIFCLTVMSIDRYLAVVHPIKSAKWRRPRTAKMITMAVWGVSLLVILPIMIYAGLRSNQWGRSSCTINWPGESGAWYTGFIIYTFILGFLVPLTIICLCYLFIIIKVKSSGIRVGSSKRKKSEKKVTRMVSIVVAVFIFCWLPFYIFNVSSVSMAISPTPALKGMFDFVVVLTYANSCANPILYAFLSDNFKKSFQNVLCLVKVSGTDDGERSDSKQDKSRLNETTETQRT", "experiment": "Intracellular Ca2+ mobilization signaling assay, SSTR2(1-359)-Largebit construct", "format": "cell-based", "details": "maximal response as percentage of wild-type SSTR2 response", "procedure": "as §1"}, "[13]": {"system": "SSTR4", "details": "SSTR4 (all five SSTRs); cited from earlier work"}, "[14]": {"system": "SSTR1", "details": "SSTR1 (all five SSTRs); cited from earlier work"}, "[15]": {"system": "SSTR5", "details": "SSTR5 (all five SSTRs); cited from earlier work"}, "[16]": {"system": "SSTR2", "details": "SSTR2 (all five SSTRs); cited from earlier work"}, "[17]": {"system": "SSTR3", "details": "SSTR3 (all five SSTRs); cited from earlier work"}, "[18]": {"biological_target": "SSTR2-Q126A (human) (UniProt P30874)", "sequence (P30874 whole entry Q126A)": "as the sequence (P30874 whole entry N276A) above, with Q126A, A276N counted along it"}, "[19]": {"biological_target": "wild-type SSTR2 (pcDNA3.1, functional assays) (human) (UniProt P30874)", "sequence (P30874 whole entry)": "as the sequence (P30874 whole entry N276A) above, with A276N counted along it"}, "[20]": {"biological_target": "SSTR2-Q102^2.63 substituted with alanine (human) (UniProt P30874)", "sequence (P30874 whole entry Q102A)": "as the sequence (P30874 whole entry N276A) above, with Q102A, A276N counted along it"}},
  "note": "Where two headings read alike, the source gives them in different places.",
  "data": [
    {"compound": "CC(C)[C@@H]1NC(=O)[C@H](CCCCN)NC(=O)[C@@H](Cc2c[nH]c3ccccc23)NC(=O)[C@H](Cc2ccc(O)cc2)NC(=O)[C@@H](NC(=O)[C@H](N)Cc2ccc3ccccc3c2)CSSC[C@@H](C(=O)N[C@H](C(N)=O)[C@@H](C)O)NC1=O", "note": "[Lanreotide]", "values": [
      {"measurement": "Emax", "setting": "[1]", "value": "13.8 ± 1.6", "unit": "%"},
      {"measurement": "Emax", "setting": "[2]", "value": "12.4 ± 1.1", "unit": "%"},
      {"measurement": "EC50", "setting": "[3]", "value": 501, "unit": "nM"},
      {"measurement": "Effect of mutation on EC50", "setting": "[3]; SSTR2-Q102S versus wild-type SSTR2", "value": "highly attenuated EC50"},
      {"measurement": "Emax", "setting": "[3]", "value": "54.8 ± 1.6", "unit": "%"},
      {"measurement": "Emax", "setting": "[4]", "value": "27.9 ± 4", "unit": "%"},
      {"measurement": "Emax", "setting": "[5]", "value": "11.7 ± 4.3", "unit": "%"},
      {"measurement": "Emax", "setting": "[6]", "value": "11.4 ± 0.8", "unit": "%"},
      {"measurement": "Emax", "setting": "[7]", "value": "14 ± 2.2", "unit": "%"},
      {"measurement": "EC50", "setting": "[8]", "value": 398, "unit": "nM"},
      {"measurement": "Emax", "setting": "[8]", "value": "56.1 ± 4.2", "unit": "%"},
      {"measurement": "half-life", "setting": "[9]", "value": 1, "unit": "h"},
      {"measurement": "Emax", "setting": "[10]", "value": "25.2 ± 1.8", "unit": "%"},
      {"measurement": "EC50", "setting": "[11]", "value": 50.1, "unit": "nM"}
    ]},
    {"compound": "C[C@@H](O)[C@@H]1NC(=O)[C@H](CCCCN)NC(=O)[C@@H](Cc2c[nH]c3ccccc23)NC(=O)[C@H](Cc2ccccc2)NC(=O)[C@@H](NC(=O)[C@H](N)Cc2ccccc2)CSSC[C@@H](C(=O)N[C@H](CO)[C@@H](C)O)NC1=O", "note": "[Octreotide]", "values": [
      {"measurement": "Emax", "setting": "[1]; N276A mutant, percentage of wild-type SSTR2 response", "value": "22.3 ± 5.4", "unit": "%"},
      {"measurement": "Emax", "setting": "[3]; Q102S mutant, percentage of wild-type SSTR2 response", "value": "91.9 ± 6.5", "unit": "%"},
      {"measurement": "Emax", "setting": "[4]; F208A mutant, percentage of wild-type SSTR2 response", "value": "98.7 ± 6.9", "unit": "%"},
      {"measurement": "Emax", "setting": "[5]; D122A mutant, percentage of wild-type SSTR2 response", "value": "5.6 ± 0.5", "unit": "%"},
      {"measurement": "Emax", "setting": "[7]; Y302A mutant, percentage of wild-type SSTR2 response", "value": "13.7 ± 3.2", "unit": "%"},
      {"measurement": "Emax", "setting": "[8]; Q102A mutant, percentage of wild-type SSTR2 response", "value": "104 ± 12.1", "unit": "%"},
      {"measurement": "half-life", "setting": "[9]", "value": 2, "unit": "h"},
      {"measurement": "Emax", "setting": "[10]; Q126A mutant, percentage of wild-type SSTR2 response", "value": "83.5 ± 5.9", "unit": "%"},
      {"measurement": "Emax", "setting": "[12]", "value": "82.6 ± 7.4", "unit": "%"}
    ]},
    {"compound": "C[C@H](N)C(=O)NCC(=O)N[C@H]1CSSC[C@@H](C(=O)O)NC(=O)[C@H](CO)NC(=O)[C@H]([C@@H](C)O)NC(=O)[C@H](Cc2ccccc2)NC(=O)[C@H]([C@@H](C)O)NC(=O)[C@H](CCCCN)NC(=O)[C@H](Cc2c[nH]c3ccccc23)NC(=O)[C@H](Cc2ccccc2)NC(=O)[C@H](Cc2ccccc2)NC(=O)[C@H](CC(N)=O)NC(=O)[C@H](CCCCN)NC1=O", "note": "[SST14]", "values": [
      {"measurement": "binding affinity", "setting": "[13]", "value": "high binding affinity"},
      {"measurement": "binding affinity", "setting": "[14]", "value": "high binding affinity"},
      {"measurement": "binding affinity", "setting": "[15]", "value": "high binding affinity"},
      {"measurement": "binding affinity", "setting": "[16]", "value": "high binding affinity"},
      {"measurement": "binding affinity", "setting": "[17]", "value": "high binding affinity"}
    ]},
    {"compound": "octreotide (peptide)", "values": [
      {"measurement": "EC50 of Ca^2+ mobilization (293 T cells with Gqi9)", "setting": "[18]", "value": 100, "unit": "nM"},
      {"measurement": "EC50 of Ca^2+ mobilization (293 T cells with Gqi9)", "setting": "[19]", "value": 20, "unit": "nM"},
      {"measurement": "EC50 of Ca^2+ mobilization (293 T cells with Gqi9)", "setting": "[20]", "value": 1300, "unit": "nM"}
    ]}
  ]
}
